ChEMBL document CHEMBL1201862, “PubChem BioAssay data set” (2004)
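All cell lines were grown in 96-well plates and treated with compound for 48 hours. Here, GI50 denotes the concentration required for 50% inhibition of growth.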 Active and inactive are the calls of the source. No stated cut-off is given here; in the data, active = GI50 up to about 1.1 µM and inactive = higher.

How the values were obtained:
Assay in all cases: NCI anticancer screen, dose series, 48 h
[1] = tested on: 786-0
[2] = tested on: ACHN
[3] = tested on: HCC 2998
[4] = tested on: HL-60
[5] = tested on: LOX IMVI
[6] = tested on: MOLT-4
[7] = tested on: Malme-3M
[8] = tested on: NCI-H23
[9] = tested on: NCI-H460
[10] = tested on: NCI-H522
[11] = tested on: SF-295
[12] = tested on: SK-OV-3
[13] = tested on: SN12C
[14] = tested on: SNB-19
[15] = tested on: SNB-75
[16] = tested on: UACC-62
[17] = tested on: UO-31

Measured: GI50

CS/C(=C(\S)c1ccccc1)c1ccccc1
inactive: [1] > 100 µM | [2] > 100 µM | [3] > 100 µM | [4] > 100 µM | [5] > 100 µM | [6] > 10 µM | [7] > 100 µM | [8] > 100 µM | [9] > 100 µM | [10] > 100 µM | [11] > 100 µM | [12] > 100 µM | [13] > 100 µM | [14] > 100 µM | [15] > 100 µM | [16] > 100 µM | [17] > 100 µM

O=c1c2ccccc2nc(-c2ccccc2)n1NC(=S)Nc1cccc(Cl)c1
inactive: [1] 68.1 µM | [2] > 100 µM | [4] > 100 µM | [5] > 100 µM | [6] > 100 µM | [7] > 100 µM | [8] > 100 µM | [9] > 100 µM | [10] 46.7 µM | [11] 64.4 µM | [12] 40.4 µM | [13] > 100 µM | [15] 28.4 µM | [16] 75 µM | [17] 89.1 µM

N=C(N)N/N=C(/c1nc2ccc([N+](=O)[O-])cc2[nH]c1=O)C(O)c1ccc([N+](=O)[O-])cc1 (stereo not given)
inactive: [1] > 100 µM | [2] 21.3 µM | [3] 28.5 µM | [4] > 100 µM | [5] 38.5 µM | [6] > 100 µM | [7] 83.8 µM | [8] > 100 µM | [9] 51.3 µM | [10] 4.54 µM | [11] > 100 µM | [12] > 100 µM | [13] > 100 µM | [14] > 100 µM | [15] 86.1 µM | [16] 15.7 µM | [17] 3.03 µM

CC(=O)OC1[C@H]2c3cc4c(cc3CN3CCC(C[C@@H]1OC(C)=O)C23)OCO4 (stereo not given in full)
inactive: [1] > 75 µM | [2] > 75 µM | [3] > 75 µM | [4] > 75 µM | [5] > 75 µM | [6] > 75 µM | [7] > 75 µM | [8] > 75 µM | [9] > 75 µM | [10] > 75 µM | [11] > 75 µM | [12] > 75 µM | [13] > 75 µM | [14] > 75 µM | [15] > 75 µM | [16] > 75 µM | [17] > 75 µM

C/C(=N/NC(N)=S)C(CN1CCOCC1)C(C1=C(O)c2ccccc2OC1)c1ccccc1 (stereo not given)
inactive: [1] > 100 µM | [2] > 100 µM | [3] > 100 µM | [4] 21 µM | [5] > 100 µM | [6] 39 µM | [7] 69 µM | [8] > 100 µM | [9] > 100 µM | [10] > 100 µM | [11] > 100 µM | [12] > 100 µM | [13] > 100 µM | [14] > 100 µM | [15] 78 µM | [16] > 100 µM | [17] > 100 µM

CC1(C)OC(=O)C(C#N)=C1/C=C/c1coc2ccc(Cl)cc2c1=O
inactive: [1] 37.2 µM | [3] 34.8 µM | [5] 18.9 µM | [6] 26.1 µM | [7] 26.2 µM | [8] 21 µM | [9] 18.8 µM | [10] 74 µM | [11] 29.8 µM | [12] 19.4 µM | [13] 30.1 µM | [14] 30.4 µM | [15] 14.9 µM | [16] 31.7 µM | [17] 27.1 µM

COC(=O)NN=C1C(C)(C)C(=O)C1(C)C
inactive: [1] > 100 µM | [2] > 100 µM | [3] > 100 µM | [4] > 100 µM | [5] > 100 µM | [6] > 100 µM | [7] > 100 µM | [8] > 100 µM | [9] > 100 µM | [10] > 100 µM | [11] > 100 µM | [12] > 100 µM | [15] > 100 µM | [16] > 100 µM | [17] > 100 µM

O=[N+]([O-])c1ccc(-c2ccc(-c3csc(Nc4ccccc4)n3)o2)cc1
inactive: [1] 17.1 µM | [2] 17.3 µM | [3] 25.1 µM | [4] 2.48 µM | [5] 18.5 µM | [6] 3.62 µM | [7] 17 µM | [8] 20.2 µM | [9] 34.8 µM | [10] 14.6 µM | [11] 34.6 µM | [12] > 100 µM | [13] 18.6 µM | [14] 40 µM | [15] 24.9 µM | [16] 21.3 µM | [17] 18.7 µM

CSC(C1c2ccccc2N(C)c2[nH]c(=O)n(C)c(=O)c21)S(=O)(=O)c1ccc(C)cc1 (stereo not given)
inactive: [1] > 100 µM | [3] > 100 µM | [4] 50.2 µM | [5] > 100 µM | [6] 40 µM | [7] > 100 µM | [8] 54.8 µM | [10] 20.1 µM | [11] > 100 µM | [12] > 100 µM | [13] > 100 µM | [14] > 100 µM | [15] 68.5 µM | [16] > 100 µM | [17] > 100 µM

COc1cccc(NC(=O)CC(=O)N2NC(c3ccccc3)C(/N=N/c3cccc(C(=O)O)c3)C2=O)c1 (stereo not given)
inactive: [1] > 100 µM | [2] > 100 µM | [3] > 100 µM | [5] > 100 µM | [6] 86.3 µM | [7] > 100 µM | [8] > 100 µM | [9] > 100 µM | [11] > 100 µM | [12] > 100 µM | [13] > 100 µM | [14] 28.1 µM | [15] > 100 µM | [16] 30.5 µM | [17] 27.5 µM

COC(=O)/C=C1\CCC2[C@@H](C(=O)CC3[C@]2(C)CCC[C@@]3(C)C(=O)OC)C1C (stereo not given in full)
inactive: [1] 31.3 µM | [2] 22.5 µM | [3] 34.6 µM | [4] 13.1 µM | [6] 6.37 µM | [7] 21.1 µM | [8] > 10 µM | [9] 15.7 µM | [10] 16.5 µM | [11] 25.6 µM | [12] 37.9 µM | [13] 24.8 µM | [14] 32.4 µM | [15] 18.5 µM | [16] 13.6 µM | [17] 21.7 µM

Cn1cc2c(n1)c(N/N=C/c1ccccc1)nn1nnnc21
inactive: [1] > 100 µM | [2] > 100 µM | [3] > 100 µM | [4] > 100 µM | [5] > 100 µM | [6] > 100 µM | [7] > 100 µM | [8] > 100 µM | [9] > 100 µM | [11] > 100 µM | [12] > 100 µM | [13] > 100 µM | [14] > 100 µM | [15] > 100 µM | [16] > 100 µM | [17] > 100 µM

CN1C/C(=C\c2ccc(C(=O)O)cc2)C(=O)/C(=C/c2ccc(C(=O)O)cc2)C1
inactive: [1] > 100 µM | [2] > 100 µM | [3] > 100 µM | [4] > 100 µM | [5] > 100 µM | [6] > 100 µM | [7] > 100 µM | [8] > 100 µM | [9] > 100 µM | [11] > 100 µM | [12] > 100 µM | [13] > 100 µM | [15] > 100 µM | [16] > 100 µM | [17] > 100 µM

CP(=O)(CCSc1ccccc1)c1ccccc1 (stereo not given)
inactive: [1] > 100 µM | [2] > 100 µM | [3] > 100 µM | [4] 35.6 µM | [5] > 100 µM | [6] > 100 µM | [7] > 100 µM | [8] > 100 µM | [9] > 100 µM | [11] > 100 µM | [12] > 100 µM | [13] > 100 µM | [14] > 100 µM | [15] > 100 µM | [16] > 100 µM | [17] > 100 µM

O=[N+]([O-])c1ccc(Cc2nc3ccccc3s2)cc1
inactive: [1] > 100 µM | [2] > 100 µM | [3] > 100 µM | [4] 63.4 µM | [6] 75.2 µM | [7] > 100 µM | [8] > 100 µM | [9] > 100 µM | [10] 60.4 µM | [11] > 100 µM | [12] > 100 µM | [13] 36.1 µM | [14] > 100 µM | [15] > 100 µM | [16] 68.1 µM | [17] > 100 µM

O=C(CSc1nnc(Cc2ccccc2)o1)Nc1ccc([N+](=O)[O-])cc1
inactive: [1] > 100 µM | [2] > 100 µM | [3] > 100 µM | [4] 14.1 µM | [5] 61.7 µM | [6] 87.3 µM | [7] > 100 µM | [8] 89.7 µM | [9] > 100 µM | [10] 82.2 µM | [11] 52 µM | [12] > 100 µM | [13] > 100 µM | [15] > 100 µM | [16] > 100 µM | [17] 74.1 µM

c1ccc(N2CCN(CCN3CCc4c([nH]c5ccccc45)C3c3cccnc3)CC2)cc1 (stereo not given)
inactive: [1] 33.1 µM | [2] > 100 µM | [3] > 100 µM | [4] > 100 µM | [6] > 100 µM | [8] > 100 µM | [9] > 100 µM | [10] > 100 µM | [11] 80 µM | [12] 24 µM | [13] > 100 µM | [14] > 100 µM | [15] 3.07 µM | [16] > 100 µM | [17] 23.8 µM
